Patent US12496304B2, “Selective glucocorticoid receptor modifiers for treating impaired skin wound healing” (AKRIBES BIOMEDICAL GMBH, priority 2019, dated 2025)
Read-outs that look alike come from different tables or passages of the source.

Legend:
[1] = test system: primary human dermal fibroblasts (HDF); experiment: Fibroblast proliferation assay (2D) in the presence of wound exudate; type: cell-based; details: for fibroblast proliferation (2D) with wound exudate: graded concentrations
Experimental: (§1) Primary human dermal fibroblasts (HDF) were purchased from CELLnTEC, Bern. They were routinely grown in Dulbecco's modified Eagle's medium (DMEM) containing 10% FCS, 2 mM glutamine, and 100 U/ml penicillin/100 μg/ml streptomycin. Media, antibiotics, and glutamine were bought from Lonza. The cells were used at passage 5-15. Cells were trypsinized and seeded at 2500 cells/well in 30 μl into the inner wells of 384-well plates in the absence or presence of graded compound concentrations with or without different dilutions of sterile-filtered WE in medium. For control samples, 30 μl medium was added instead of specific stimuli. The outer wells were loaded with sterile water. The cells were incubated for 72 hours at 37° C.
(§2) At the end of the incubation period, supernatants were removed for the determination of IL-1β, and the cells were fixed with 4% paraformaldehyde (Morphisto) for 15 minutes at room temperature and washed 3 times with PBS. A control plate was fixed after the overnight adherence of the cells (day 1) to determine the starting cell number.
Total cellular protein was determined as a measure of cell number by staining the fixed cells with sulforhodamine B (SRB, Sigma). A 0.4% SRB solution in 1% acetic acid was added to the wells for 30 minutes. The wells were then washed with 1% acetic acid until the wash solution remained colorless. After drying, the dye was eluted with 10 mM Tris-HCl, pH8.5, and absorbance was measured either at 550 or 492 nm for lower and higher cell densities, respectively. The average absorbance of the sample representing the day 1 starting cell number was subtracted from the absorbance values of the WE-treated cells.
All experiments were carried out in triplicate for each sample and concentration, and means±standard deviation (SD) were used for the evaluation of the experiment. Results are expressed as percentage of control values for unstimulated cells.

IL-8 [2] = experiment: Primary human monocyte cytokine secretion assay (spontaneous IL-8); type: cell-based; details: 16 hours (FIG. 16B)
Experimental: Primary human monocytes were prepared from peripheral blood mononuclear cells (PBMC). PBMC were isolated from buffy coats obtained from the Red Cross, Vienna, using LymphoPrep (Technoclone). 30 ml of buffy concentrate was diluted 1:2 with PBS, gently underlayered with 15 ml Lymphoprep in a 50 ml Falcon tube and centrifuged for 25 minutes at 1800 rpm at 21° C. The interphase was carefully transferred to a new Falcon tube and filled up to 50 ml with ice cold PBS. After another centrifugation step (10 minutes, 1200 rpm, 4° C.), the cell pellet was washed 3 times with PBS, resuspended in RPMI medium containing 20% FCS and 10% DMSO and frozen in liquid nitrogen. Monocytes were generated from frozen aliquots using positive selection with the CD14 Beads-Kit (Miltenyi) on an autoMACS-Sorter (Miltenyi) according to the manufacturer's instructions.
Cells were seeded at 8×10^5/ml in 50 μl/well of a 384-well plate and combined cells with graded concentrations of test compounds. After 16 hours, the supernatants were transferred to fresh plates and frozen at −20° C. for IL-8 analysis, using a commercial ELISA kit.

IL-1β = IL-1β secretion into the supernatant in the fibroblast proliferation assay (ELISA); type: cell-based, human; details: graded concentrations
Experimental: as §1, §2
IL-1β levels were determined with a commercial ELISA kit. The amount of IL-1β contained in the wound exudate added to the cells was subtracted from the total IL-B in the supernatants in order to determine the cytokine secreted by the cells.

IL-8 [3] = experiment: U937 cell stimulation assay (LPS-induced IL-8); type: cell-based, human; details: LPS 100 ng/ml, 16 hours (FIG. 16A)
Experimental: The human monocytic cell line U937 (ATCC CRL 1593) was routinely grown in RPMI_1640 supplemented by 10% FCS and 2 mM glutamine, and 100 U/ml penicillin/100 μg/ml streptomycin. Cells were seeded at 4×10^5/ml in 50 μl/well of a 384-well plate and combined cells with graded concentrations of test compounds and LPS at 100 ng/ml. After 16 hours, the supernatants were transferred to fresh plates and frozen at −20° C. for IL-8 analysis, using a commercial ELISA kit.

[4] = test system: human dermal fibroblast (HDF) cells; experiment: Fibroblast-derived matrix formation (FDM) assay, 3D fibroblast culture; type: cell-based; details: for formation of fibroblast-derived matrix (3D): WE from patient #92 (FIG. 12)
Experimental: Human dermal fibroblast (HDF) cells were seeded at 1250 cells/well on day −3 into 384-well tissue culture plates, which had been pre-coated for 1 hour at 37° C. with 0.2% gelatin solution (Sigma). When the cells reached confluence (=day 0), a matrix promoting supplement (vitamin C: 2-phospho-L-ascorbic acid trisodium salt, 100 μg/ml; Sigma) was added together with test samples containing TGF-β1 or graded concentrations of compounds −/+WE as described for the HDF proliferation assay. After 4 days, medium was replaced by fresh vitamin C—and stimulus—as well as compound-containing medium, maintaining the conditions initiated on day 0. TGF-β1 was included as a positive control to promote FDM formation. After a total incubation time of 7 to 8 days, FDM production was measured in fixed cultures via SRB staining and evaluated as described above. In some cases, the experiment was stopped and evaluated already on day 4.

glucocorticoid receptor = target: T1, glucocorticoid receptor (Homo sapiens, UniProt P04150); details: for localization of the glucocorticoid receptor: 45 minutes at 37° C.
T1 sequence (P04150 1-777): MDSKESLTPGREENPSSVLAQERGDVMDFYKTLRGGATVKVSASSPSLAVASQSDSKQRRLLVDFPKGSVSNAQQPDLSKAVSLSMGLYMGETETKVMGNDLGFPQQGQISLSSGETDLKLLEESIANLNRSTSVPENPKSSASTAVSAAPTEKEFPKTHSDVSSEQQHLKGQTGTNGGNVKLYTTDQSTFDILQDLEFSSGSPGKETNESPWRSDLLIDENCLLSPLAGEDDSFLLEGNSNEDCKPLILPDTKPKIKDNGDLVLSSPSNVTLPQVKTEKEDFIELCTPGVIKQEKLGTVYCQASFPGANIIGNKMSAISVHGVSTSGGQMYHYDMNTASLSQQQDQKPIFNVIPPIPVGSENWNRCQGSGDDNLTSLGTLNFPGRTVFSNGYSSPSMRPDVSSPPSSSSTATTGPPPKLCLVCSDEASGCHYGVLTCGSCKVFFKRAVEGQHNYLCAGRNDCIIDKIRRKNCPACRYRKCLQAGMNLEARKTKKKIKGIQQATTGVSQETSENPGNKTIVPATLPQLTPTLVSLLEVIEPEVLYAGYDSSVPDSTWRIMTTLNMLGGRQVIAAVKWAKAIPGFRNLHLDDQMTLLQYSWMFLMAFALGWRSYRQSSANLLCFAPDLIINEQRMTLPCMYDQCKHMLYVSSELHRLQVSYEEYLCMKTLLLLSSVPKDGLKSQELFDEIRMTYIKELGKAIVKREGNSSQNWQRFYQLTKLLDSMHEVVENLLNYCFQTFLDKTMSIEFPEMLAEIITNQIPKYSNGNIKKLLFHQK

CC(C)(C[C@@](O)(Cc1cc2ccncc2[nH]1)C(F)(F)F)c1cc(F)ccc1O [HY14234]
fibroblast proliferation (2D) with wound exudate ([1]; WE-1 (FIG. 2A, 9A)): dose-dependent partial reversion of the wound exudate (WE)-induced inhibition of fibroblast proliferation
fibroblast proliferation (2D) with wound exudate ([1]; WE-2 (FIG. 10A)): dose-dependently reversed inhibition of wound exudate (WE)-induced fibroblast proliferation
fibroblast proliferation (2D) with wound exudate ([1]; WE-3 (FIG. 11A)): dose-dependently reversed inhibition of wound exudate (WE)-induced fibroblast proliferation
spontaneous IL-8 secretion in human monocytes (IL-8 [2]): inhibited both LPS-induced and spontaneous IL-8 secretion
IL-1β secretion into the supernatant (IL-1β; WE-1 (FIG. 2B, 9B)): inhibited IL-1β secretion at the same concentrations
IL-1β secretion into the supernatant (IL-1β; WE-2 (FIG. 10B)): inhibition of IL-1β secretion was negligible
IL-1β secretion into the supernatant (IL-1β; WE-3 (FIG. 11B)): inhibited IL-1β secretion at the same concentrations
LPS-induced IL-8 secretion in U937 cells (IL-8 [3]): inhibited both LPS-induced and spontaneous IL-8 secretion
formation of fibroblast-derived matrix (3D) [4]: found to be active
localization of the glucocorticoid receptor (glucocorticoid receptor; 0.1 nM): N/C
localization of the glucocorticoid receptor (glucocorticoid receptor; 1 nM): N
localization of the glucocorticoid receptor (glucocorticoid receptor; 100 nM): N
localization of the glucocorticoid receptor (glucocorticoid receptor; 10 nm): N

C[C@H](NC(=O)C(C)(F)F)[C@H](Oc1ccc2c(cnn2-c2cccc(C(=O)NC3CCOC3)c2)c1)c1ccc2c(c1)OCCO2 (stereo partly drawn) [AZD7594, 3-(5-((1R,2S)-2-(2,2-difluoropropanamido)-1-(2,3-dihydrobenzo[b][1,4]dioxin-6-yl)propoxy)-1H-indazol-1-yl)-N-(tetrahydrofuran-3-yl)benzamide]
fibroblast proliferation, % proliferation of respective WE control ([1]; 1 μM, WE-02, WE control set to 100%): 196%
fibroblast proliferation, % proliferation of respective WE control ([1]; 1 μM, WE-03, WE control set to 100%): 161%
fibroblast proliferation, % proliferation of respective WE control ([1]; 1 μM, WE-04, WE control set to 100%): 1139%
fibroblast proliferation, % proliferation of respective WE control ([1]; 1 μM, WE-05, WE control set to 100%): 203%
fibroblast proliferation, % proliferation of respective WE control ([1]; 1 μM, WE-37, WE control set to 100%): 171%
fibroblast proliferation, % proliferation of respective WE control ([1]; 1 μM, WE-77, WE control set to 100%): 128%
efficacy on fibroblast proliferation compared with mapracorat ([1]; 1 μM, plurality of different wound exudates): comparable to the effect of mapracorat
formation of fibroblast-derived matrix (3D) [4]: most active of the SEGRM tested in 3D culture
localization of the glucocorticoid receptor (glucocorticoid receptor; 0.1 nM): N/C
localization of the glucocorticoid receptor (glucocorticoid receptor; 1 nM): N
localization of the glucocorticoid receptor (glucocorticoid receptor; 100 nM): N
localization of the glucocorticoid receptor (glucocorticoid receptor; 10 nm): N

Cc1noc(=O)c2ccc(NC(=O)C(O)(CC(C)(C)c3cccc4c3OCC4)C(F)(F)F)cc12 (centres unmarked) [ZK216348]
rescue of fibroblasts in 2D culture from wound-exudate-induced inhibition of proliferation, compared with HY14234 ([1]; FIGS. 9A, 10A, 11A): less efficient
fibroblast proliferation (2D) with wound exudate ([1]; WE-1 (FIG. 2A, 9A)): dose-dependent partial reversion of the wound exudate (WE)-induced inhibition of fibroblast proliferation
fibroblast proliferation (2D) with wound exudate ([1]; WE-2 (FIG. 10A)): dose-dependently reversed inhibition of wound exudate (WE)-induced fibroblast proliferation
fibroblast proliferation (2D) with wound exudate ([1]; WE-3 (FIG. 11A)): dose-dependently reversed inhibition of wound exudate (WE)-induced fibroblast proliferation
IL-1β secretion into the supernatant (IL-1β; WE-1 (FIG. 2B, 9B)): inhibited IL-1β secretion at the same concentrations
IL-1β secretion into the supernatant (IL-1β; WE-2 (FIG. 10B)): inhibition of IL-1β secretion was negligible
IL-1β secretion into the supernatant (IL-1β; WE-3 (FIG. 11B)): inhibited IL-1β secretion at the same concentrations
formation of fibroblast-derived matrix (3D) [4]: positive effect

CC#C[C@]1(O)CC[C@H]2[C@@H]3CCC4=CC(=O)CCC4=C3[C@@H](c3ccc(N(C)C)cc3)C[C@@]21C [mifepristone]
effect on the matrix-promoting activity of BI-653048 ([4]; mifepristone 1 μM, WE-1 (FIG. 4)): completely abrogated

CCOC[C@]12Cc3cnn(-c4ccc(F)cc4)c3C=C1CCN(S(=O)(=O)c1ccc(C(F)(F)F)cc1)C2 [CORT108297]
localization of the glucocorticoid receptor (glucocorticoid receptor; 1 nM): N/C
localization of the glucocorticoid receptor (glucocorticoid receptor; 100 nM): N
localization of the glucocorticoid receptor (glucocorticoid receptor; 10 nm): N

C[C@H]1C[C@H]2[C@@H]3CCC4=CC(=O)C=C[C@]4(C)[C@@]3(F)[C@@H](O)C[C@]2(C)[C@@]1(O)C(=O)CCl [Clobetasol]
glucocorticoid receptor localization, positive control (glucocorticoid receptor): shows nuclear staining
